According to EP4623911A1, “PI4KB INHIBITORS FOR THE TREATMENT OF FATTY LIVER DISEASE” (ETH Zurich, priority 2024, dated 2025):

Test system: mouse model of hepatic steatosis
Experiment: HFD-induced hepatic steatosis (NAFLD) mouse model treated with UCB9608
Assay type: in vivo, mice
Experimental: Male mice were used for NAFLD induction via feeding on HFD. ROSA26-LSL-spCas9 mice were injected with AAV-U6-Cu/7 gRNAs-TBG-Cre and AAV-U6-Fbxw8 gRNAs-TBG-Cre virus pools at a dose of 3×10^11 genome copies/mouse and fed in HFD for 12 weeks and livers were harvested after 6 hours fasting. To study PI4KB in NAFLD progression, male ROSA26-LSL-spCas9 mice were fed in HFD for 12 weeks to induce fatty liver before induction of hepatocyte specific depletion of PI4KB via intravenous administration of AAV8. After another 8 weeks, mice were dissected to harvest liver after 6 hours fasting. Likewise, male C57BL/6N wild-type mice and liver specific Atgl knockout mice (AtglLKO) were challenged with HFD for 12 weeks to induce fatty liver prior to administration of UCB9608 mixed in HFD (5 mg/kg) for another 8 weeks. Then the mice were dissected to harvest tissues and sample blood after 6 hours fasting Atgl floxed mice (The Jackson Lab strain) were crossed with Albumin-Cre (The Jackson Lab strain) and Adip-CreERT2 strains to obtain Alb-Atgfl^fl/fl and AdipcreERT2-Atgl^fl/fl mice (Sitnick,M.T. et al, Diabetes 62, (2013)), which deplete ATGL protein in the liver and the adipose depots (induced after tamoxifen gavage), respectively. […]
Adipose depots, liver pieces, differentiated iBAs, HepG2, HEK293T and HEK293-AAV cell types were homogenized in RIPA buffer (50 mM Tris-HCl pH 7.4, 150 mM NaCl, 2 mM EDTA, 1.0% Triton X100, 0.5% sodium deoxycholate) with protease inhibitors (Complete, Roche) and phosphatase inhibitors (Halt phosphatase inhibitor cocktail, ThermoFisher). […] The concentration of WCE was determined by DC Protein Assay (Bio-Rad). […]
Plasma collected from mice under different conditions was used to determine levels of lipolysis and liver injury. FFA levels were measured via NEFA assay kit (Wako NEFA kit). TG levels were determined via TG assay kit (Roche Trig/GB reagent). […] The absorbance was monitored using Synergy Gen5 Platereader.
Weight of liver pieces (50-100 mg) was recorded before homogenization by 1 mL isopropanol per 50 mg tissue. […]

**Q.** What does the source list for `COc1ccc(NC(=O)N2CCN(c3nc(N)nc4c3cnn4C)[C@@H](C)C2)c(C)c1` [UCB9608]?
**A.** hepatic steatosis (hepatic TG levels) (HFD 12 weeks, then UCB9608 in HFD (5 mg/kg) 8 weeks, requires ATGL in the liver): substantially attenuated; ATGL protein levels in the iBAT, gWAT and liver (UCB9608- vs DMSO-treated HFD mice): significantly greater; plasma FFA levels (wild-type mice, HFD 12 weeks, then UCB9608 in HFD (5 mg/kg) 8 weeks, vs DMSO): significantly increased
